# Measurements as given in patent US20260062387A1, “SALT-INDUCIBLE KINASE INHIBITOR COMPOUND AND PHARMACEUTICAL COMPOSITION INCLUDING THE SAME” (MITSUBISHI TANABE PHARMA CORPORATION, priority 2023, published 2026).
# Marks after values point to notes of the source that are not given here.
# Assays:
# GST-tagged SIK1 = GST-tagged SIK1 (Homo sapiens (Human), UniProt P57059); experiment: SIK1 inhibition test (ADP-Glo Max Assay); format: biochemical; details: enzyme 20 nM, AMARA Peptide 200 μM, ATP 1 mM, 2 hours room temperature
# In short: (§1)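 GST-tagged human SIK1, SIK2 and SIK3 at 20 nM, 3 nM and 100 nM final in Tris pH 7.5 buffer, with AMARA peptide (200 μM for SIK1/SIK2, 100 μM for SIK3), 1 mM ATP and 5 mM MgCl2. Reaction ran 2 h at room temperature. ADP read by ADP-Glo Max luminescence, and IC50 fitted from 16 concentrations.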
# [1] = test system: TNF-α production in LPS-stimulated human monocytes; experiment: TNF-α production inhibition test in LPS-stimulated human monocytes; format: cell-based; details: Monocyte, LPS 100 ng/mL, 4 hours
# Description: (§2) The compound of Example 106 was used as the test compound.
# Cryopreserved mononuclear cells derived from human peripheral blood (LONZA K. K.) were thawed at 37° C., and human monocytes were isolated using CD14 Microfleads (Miltenyi Biotec). The isolated human monocytes were mixed with a culture medium (RPMI 1640, 10% FBS, penicillin, streptomycin), and a DMSO solution of a concentration of the test compound was added. The mixture was incubated at 37° C. for 30 minutes. After the incubation, lipopolysaccharide (LPS; Sigma Aldrich) was added so that the final concentration would be 100 ng/mL. The mixture was incubated at 37° C. for 4 hours. After the incubation, the supernatant was recovered and cryopreserved at −80° C. The cryopreserved supernatant was thawed and the amount of TNF-α production in the supernatant was measured using CBA Human TNF Flex Set (BD Bioscience).
# Inhibitory ratio (%) was calculated by: % Inhibition={1−(amount of TNF-α production in sample−amount of TNF-α production without stimulus (DMSO added, not LPS-stimulated))/(amount of TNF-α production in control (DMSO added, LPS-stimulated)−amount of TNF-α production without stimulus (DMSO added, not LPS-stimulated))}×100. The inhibitory concentration IC50was calculated based on 4 data values obtained in the concentration response test.
# GST-tagged SIK2 = GST-tagged SIK2 (Homo sapiens (Human), UniProt Q9H0K1); experiment: SIK2 inhibition test (ADP-Glo Max Assay); format: biochemical; details: enzyme 3 nM, AMARA Peptide 200 μM, ATP 1 mM, 2 hours room temperature
# In short: as §1
# [2] = test system: TNF-α in serum of LPS-stimulated mice; experiment: TNF-α increase inhibition test in LPS-stimulated mouse serums; format: in vivo, BALB/c mice; details: 1 mg/kg oral, LPS intraperitoneal 30 minutes later, serum 1.5 hours later
# Description: as §2
# Six-week old male BALB/c mice were orally administered with a suspension (10 mL/kg) of a concentration of the test compound in 0.5% methylcellulose (MC) solution. 30 Minutes later, […] of LPS (Sigma Aldrich) was intraperitoneally administered. […] The amount of TNF-α production in the serum was measured using CBA […] TNF Flex Set (BD Bioscience).
# The inhibitory ratio (%) was calculated by: % Inhibition={1−(amount of TNF-α production in sample−average amount of TNF-α production without stimulus (MC administered, not LPS-stimulated)/(average amount of TNF-α production in control (MC administered, LPS-stimulated)−average amount of TNF-α production without stimulus (MC administered, not LPS-stimulated))}×100. The results are described in Table 4 below.
# GST-tagged SIK3 = GST-tagged SIK3 (Homo sapiens (Human), UniProt Q9Y2K2); experiment: SIK3 inhibition test (ADP-Glo Max Assay); format: biochemical; details: enzyme 100 nM, AMARA Peptide 100 μM, ATP 1 mM, 2 hours room temperature
# In short: as §1
# Sequence of GST-tagged SIK3 (Q9Y2K2 whole entry): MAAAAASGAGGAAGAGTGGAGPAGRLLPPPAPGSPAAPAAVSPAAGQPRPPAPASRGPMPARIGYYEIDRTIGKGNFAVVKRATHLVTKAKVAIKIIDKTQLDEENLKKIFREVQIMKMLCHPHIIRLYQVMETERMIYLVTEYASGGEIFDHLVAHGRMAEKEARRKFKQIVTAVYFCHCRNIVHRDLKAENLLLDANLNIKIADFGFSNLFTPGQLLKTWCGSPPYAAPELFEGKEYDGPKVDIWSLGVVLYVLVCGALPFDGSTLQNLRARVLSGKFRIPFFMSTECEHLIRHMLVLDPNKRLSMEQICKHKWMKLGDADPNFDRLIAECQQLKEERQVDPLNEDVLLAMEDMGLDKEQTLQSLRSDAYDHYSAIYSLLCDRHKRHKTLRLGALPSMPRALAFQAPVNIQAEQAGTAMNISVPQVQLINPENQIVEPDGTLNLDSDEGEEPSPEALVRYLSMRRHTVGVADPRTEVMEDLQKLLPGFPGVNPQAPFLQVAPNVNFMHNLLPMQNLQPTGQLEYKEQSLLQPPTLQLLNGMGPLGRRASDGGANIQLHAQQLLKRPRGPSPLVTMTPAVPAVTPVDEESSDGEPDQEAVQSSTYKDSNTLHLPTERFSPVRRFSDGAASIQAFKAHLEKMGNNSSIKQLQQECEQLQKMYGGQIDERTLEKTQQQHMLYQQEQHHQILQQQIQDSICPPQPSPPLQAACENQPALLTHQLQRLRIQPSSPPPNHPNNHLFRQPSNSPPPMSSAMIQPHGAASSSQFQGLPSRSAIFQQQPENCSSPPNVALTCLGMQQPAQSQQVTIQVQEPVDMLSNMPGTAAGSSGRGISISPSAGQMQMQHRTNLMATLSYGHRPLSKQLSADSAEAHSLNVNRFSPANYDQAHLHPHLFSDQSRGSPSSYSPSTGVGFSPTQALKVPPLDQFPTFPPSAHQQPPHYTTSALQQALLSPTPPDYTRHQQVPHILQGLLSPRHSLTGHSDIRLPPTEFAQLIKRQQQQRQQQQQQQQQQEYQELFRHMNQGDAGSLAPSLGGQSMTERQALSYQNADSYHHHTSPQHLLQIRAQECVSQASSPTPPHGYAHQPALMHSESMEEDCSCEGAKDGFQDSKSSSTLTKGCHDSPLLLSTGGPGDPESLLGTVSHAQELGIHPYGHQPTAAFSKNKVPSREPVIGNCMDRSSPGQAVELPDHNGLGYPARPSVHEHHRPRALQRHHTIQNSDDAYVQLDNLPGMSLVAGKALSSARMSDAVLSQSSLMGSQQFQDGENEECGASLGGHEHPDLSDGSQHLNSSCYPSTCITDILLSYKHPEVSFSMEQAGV
# Sequence of GST-tagged SIK1 (P57059 whole entry): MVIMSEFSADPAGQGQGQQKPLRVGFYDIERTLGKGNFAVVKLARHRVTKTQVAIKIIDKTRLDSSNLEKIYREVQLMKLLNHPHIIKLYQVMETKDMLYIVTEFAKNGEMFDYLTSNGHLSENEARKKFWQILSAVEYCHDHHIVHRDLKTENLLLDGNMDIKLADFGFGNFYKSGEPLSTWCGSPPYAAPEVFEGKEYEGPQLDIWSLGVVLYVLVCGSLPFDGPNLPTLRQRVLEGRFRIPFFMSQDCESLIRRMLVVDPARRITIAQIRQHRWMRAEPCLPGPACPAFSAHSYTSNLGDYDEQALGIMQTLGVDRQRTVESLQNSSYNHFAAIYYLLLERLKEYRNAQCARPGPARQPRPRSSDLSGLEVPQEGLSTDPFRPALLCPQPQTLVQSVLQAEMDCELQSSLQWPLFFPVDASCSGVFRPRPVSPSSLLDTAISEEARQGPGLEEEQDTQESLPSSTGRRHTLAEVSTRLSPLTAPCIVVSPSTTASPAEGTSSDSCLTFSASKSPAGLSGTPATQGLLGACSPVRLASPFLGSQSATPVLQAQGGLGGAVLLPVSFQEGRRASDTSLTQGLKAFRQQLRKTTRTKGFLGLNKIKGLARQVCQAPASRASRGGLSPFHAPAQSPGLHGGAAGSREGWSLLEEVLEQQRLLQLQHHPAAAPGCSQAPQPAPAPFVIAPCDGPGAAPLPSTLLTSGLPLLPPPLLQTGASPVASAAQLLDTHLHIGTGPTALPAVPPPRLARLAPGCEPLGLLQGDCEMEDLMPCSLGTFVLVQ
# Sequence of GST-tagged SIK2 (Q9H0K1 whole entry): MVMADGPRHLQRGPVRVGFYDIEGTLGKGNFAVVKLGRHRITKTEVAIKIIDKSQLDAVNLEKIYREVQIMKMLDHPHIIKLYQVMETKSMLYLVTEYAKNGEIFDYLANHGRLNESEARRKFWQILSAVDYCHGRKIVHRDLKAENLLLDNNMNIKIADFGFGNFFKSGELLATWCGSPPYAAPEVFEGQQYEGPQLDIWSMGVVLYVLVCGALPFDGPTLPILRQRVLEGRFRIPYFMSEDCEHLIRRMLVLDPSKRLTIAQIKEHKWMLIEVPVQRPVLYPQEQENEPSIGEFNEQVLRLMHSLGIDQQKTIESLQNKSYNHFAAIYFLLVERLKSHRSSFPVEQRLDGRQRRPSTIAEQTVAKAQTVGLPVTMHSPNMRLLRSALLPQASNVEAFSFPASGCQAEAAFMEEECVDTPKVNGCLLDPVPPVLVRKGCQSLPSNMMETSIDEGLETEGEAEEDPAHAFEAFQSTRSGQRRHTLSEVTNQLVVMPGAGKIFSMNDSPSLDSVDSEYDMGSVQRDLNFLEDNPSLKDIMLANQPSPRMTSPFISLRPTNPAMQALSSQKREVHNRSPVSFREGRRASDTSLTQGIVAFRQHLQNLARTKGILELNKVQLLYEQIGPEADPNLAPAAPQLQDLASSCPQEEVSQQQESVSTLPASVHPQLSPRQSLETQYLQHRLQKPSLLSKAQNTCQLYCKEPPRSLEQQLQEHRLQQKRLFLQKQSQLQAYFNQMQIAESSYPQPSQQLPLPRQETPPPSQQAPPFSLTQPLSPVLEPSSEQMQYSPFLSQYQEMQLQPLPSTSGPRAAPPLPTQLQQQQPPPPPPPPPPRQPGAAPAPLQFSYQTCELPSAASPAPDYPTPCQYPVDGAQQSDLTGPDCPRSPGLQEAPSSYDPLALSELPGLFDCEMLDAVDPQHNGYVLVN
Structure (SMILES),IC50 (GST-tagged SIK1) [nM],IC50 [1] [nM],IC50 (GST-tagged SIK2) [nM],IC50 (GST-tagged SIK3) [nM],TNF α increase inhibition ratio [2]
"COc1cc(-c2c3c(C#N)cc(-c4cc[nH]n4)cc3nn2C)cc(OC(F)F)c1C(=O)N[C@@H]1CC1(F)F [Example 149, 4-[4-cyano-2-methyl-6-(1H-pyrazol-3-yl)indazol-3-yl]-N-[(1R)-2,2-difluorocyclopropyl]-2-(difluoromethoxy)-6-methoxybenzamide]",10.4,,1.3,1.6,
"COc1cc(-c2c3c(C(F)F)cc(-c4cn[nH]c4)cc3nn2C)cc(OC(F)F)c1C(=O)N[C@@H]1CC1(F)F [Example 150, N-[(1R)-2,2-difluorocyclopropyl]-2-(difluoromethoxy)-4-[4-(difluoromethyl)-2-methyl-6-(1H-pyrazol-4-yl)indazol-3-yl]-6-methoxybenzamide]",10.2,,2.4,1.3,
"COCCCn1cc(-c2cc(C#N)c3c(-c4cc(OC)c5c(c4)C(C)(C)CNC5=O)n(C)nc3c2)cn1 [Example 151, 3-(8-methoxy-4,4-dimethyl-1-oxo-2,3-dihydroisoquinolin-6-yl)-6-[1-(3-methoxypropyl)pyrazol-4-yl]-2-methylindazole-4-carbonitrile]",9.8,,3.5,14.2,
"COc1cc(-c2c3c(OCC(F)(F)F)cc(-c4cnn(C)c4)cc3nn2C)cc(OC(F)F)c1C(N)=O [Example 157, 2-(difluoromethoxy)-6-methoxy-4-[2-methyl-6-(1-methylpyrazol-4-yl)-4-(2,2,2-trifluoroethoxy)indazol-3-yl]benzamide]",5.1,,1,7.9,
"COc1cc(-c2c3c(C(F)F)cc(-c4cnn([C@H]5CCOC5)c4)cc3nn2C)cc(OC(F)F)c1C(N)=O [Example 158, 2-(difluoromethoxy)-4-[4-(difluoromethyl)-2-methyl-6-[1-[(3S)-oxolan-3-yl]pyrazol-4-yl]indazol-3-yl]-6-methoxybenzamide]",11.7,,2.2,3.6,
"COc1cc(-c2cnn(C)c2)cc2nn(C)c(-c3cc(OC(F)F)c4c(c3)C(C)CNC4=O)c12 (centres unmarked) [Example 161, 8-(difluoromethoxy)-6-[4-methoxy-2-methyl-6-(1-methylpyrazol-4-yl)indazol-3-yl]-4-methyl-3,4-dihydro-2H-isoquinolin-1-one]",5.6,,1.3,10,
"Cn1cc(-c2cc(C#N)c3c(-c4cc(OC(F)F)c5c(c4)C(C)(C)CNC5=O)n(C)nc3c2)cn1 [Example 162, 3-[8-(difluoromethoxy)-4,4-dimethyl-1-oxo-2,3-dihydroisoquinolin-6-yl]-2-methyl-6-(1-methylpyrazol-4-yl)indazol-4-carbonitrile]",8.1,,2.5,3.2,

# Further molecules by falling IC50 (GST-tagged SIK1), results first:
IC50 (GST-tagged SIK1) [nM],IC50 [1] [nM],IC50 (GST-tagged SIK2) [nM],IC50 (GST-tagged SIK3) [nM],Structure (SMILES),TNF α increase inhibition ratio [2]
13.8,,2.8,4.6,"COc1cc(-c2c3c(C(F)F)cc(-c4cnn([C@@H]5CCOC5)c4)cc3nn2C)cc(OC(F)F)c1C(N)=O [Example 159, 2-(difluoromethoxy)-4-[4-(difluoromethyl)-2-methyl-6-[1-[(3R)-oxolan-3-yl]pyrazol-4-yl]indazol-3-yl]-6-methoxybenzamide]",
8.5,,1.8,2.7,"COc1cc(-c2c3c(C#N)cc(-c4cnn(C[C@@H](C)O)c4)cc3nn2C)cc(OC(F)F)c1C(=O)N[C@@H]1CC1(F)F [Example 153, 4-[4-cyano-6-[1-[(2R)-2-hydroxypropyl]pyrazol-4-yl]-2-methylindazol-3-yl]-N-[(1R)-2,2-difluorocyclopropyl]-2-(difluoromethoxy)-6-methoxybenzamide]",
8,19,3.1,6.8,"CCCn1cc(-c2cc(C#N)c3c(-c4cc(OC)c5c(c4)[C@@H](C)CNC5=O)n(C)nc3c2)cn1 (single isomer, unassigned) [Example 106]",47.2** %
7.6,,1.2,9.5,"COCCn1cc(-c2cc(OC(F)F)c3c(-c4cc(OC)c(C(N)=O)c(OC(F)F)c4)n(C)nc3c2)cn1 [Example 154, 2-(difluoromethoxy)-4-[4-(difluoromethoxy)-6-[1-(2-methoxyethyl)pyrazol-4-yl]-2-methylindazol-3-yl]-6-methoxybenzamide]",
7.5,,1,3,"CC1CNC(=O)c2c(OC(F)F)cc(-c3c4c(C#N)cc(-c5cnn(C)c5)cc4nn3C)cc21 (centres unmarked) [Example 160, 3-[8-(difluoromethoxy)-4-methyl-1-oxo-3,4-dihydro-2H-isoquinolin-6-yl]-2-methyl-6-(1-methylpyrazol-4-yl)indazol-4-carbonitrile]",
7.4,,1.5,5.5,"CCn1cc(-c2cc(OC(F)F)c3c(-c4cc(OC)c(C(N)=O)c(OC(F)F)c4)n(C)nc3c2)cn1 [Example 155, 2-(difluoromethoxy)-4-[4-(difluoromethoxy)-6-(1-ethylpyrazol-4-yl)-2-methylindazol-3-yl]-6-methoxybenzamide]",
7.2,,3.4,14.4,"CCOCCn1cc(-c2cc(C#N)c3c(-c4cc(OC)c5c(c4)C(C)(C)CNC5=O)n(C)nc3c2)cn1 [Example 152, 6-[1-(2-ethoxyethyl)pyrazol-4-yl]-3-(8-methoxy-4,4-dimethyl-1-oxo-2,3-dihydroisoquinolin-6-yl)-2-methylindazole-4-carbonitrile]",
4.3,,0.7,2.6,"COc1cc(-c2c3c(OCC(F)F)cc(-c4cnn(C)c4)cc3nn2C)cc(OC(F)F)c1C(N)=O [Example 156, 4-[4-(2,2-difluoroethoxy)-2-methyl-6-(1-methylpyrazol-4-yl)indazol-3-yl]-2-(difluoromethoxy)-6-methoxybenzamide]",
